According to the NIST ThermoML archive (doi:10.1016/j.jct.2012.12.006):
Where “and” joins values, the source holds several entries; their conditions need not be identical. Equal values may be shown once. ± gives the expanded uncertainty stated by the source.

Tests used:
[1] = for vapor or sublimation pressure: Calculated from knudsen effusion weight loss; for Triple point temperature: DTA
[2] = Molar enthalpy of transition or fusion; conditions: DSC

NC(=O)c1cccc(N)c1 [3-aminobenzamide]
vapor or sublimation pressure ([1]; 358.14 K, Crystal): 3.7e-05 ± 2e-05 kPa and 3.8e-05 ± 2e-05 kPa
vapor or sublimation pressure ([1]; 360.19 K, Crystal): 4.8e-05 ± 2e-05 kPa and 4.7e-05 ± 2e-05 kPa
vapor or sublimation pressure ([1]; 362.14 K, Crystal): 5.9e-05 ± 2e-05 kPa and 5.8e-05 ± 2e-05 kPa and 6e-05 ± 2e-05 kPa
vapor or sublimation pressure ([1]; 364.14 K, Crystal): 7.5e-05 ± 2e-05 kPa
vapor or sublimation pressure ([1]; 366.17 K, Crystal): 9.4e-05 ± 2e-05 kPa
vapor or sublimation pressure ([1]; 368.15 K, Crystal): 0.000116 ± 2e-05 kPa and 0.000114 ± 2e-05 kPa and 0.000117 ± 2e-05 kPa
vapor or sublimation pressure ([1]; 370.15 K, Crystal): 0.000144 ± 2.1e-05 kPa and 0.000146 ± 2.1e-05 kPa and 0.000143 ± 2.1e-05 kPa
vapor or sublimation pressure ([1]; 372.19 K, Crystal): 0.000179 ± 2.1e-05 kPa and 0.000177 ± 2.1e-05 kPa and 0.000176 ± 2.1e-05 kPa
vapor or sublimation pressure ([1]; 374.13 K, Crystal): 0.000218 ± 2.1e-05 kPa and 0.000216 ± 2.1e-05 kPa and 0.000222 ± 2.2e-05 kPa
vapor or sublimation pressure ([1]; 376.15 K, Crystal): 0.000276 ± 2.2e-05 kPa and 0.000275 ± 2.2e-05 kPa and 0.000274 ± 2.2e-05 kPa
vapor or sublimation pressure ([1]; 378.18 K, Crystal): 0.000342 ± 2.3e-05 kPa and 0.000338 ± 2.3e-05 kPa
vapor or sublimation pressure ([1]; 380.14 K, Crystal): 0.00042 ± 2.5e-05 kPa and 0.000406 ± 2.5e-05 kPa and 0.000405 ± 2.5e-05 kPa
Triple point temperature ([1]; Crystal 1): 387.5 ± 0.4 K
Triple point temperature ([1]; Crystal 2): 352.4 ± 0.4 K
Molar enthalpy of transition or fusion ([2]; Crystal 1): 4.85 ± 0.12 kcal/mol
Molar enthalpy of transition or fusion ([2]; Crystal 2): 0.789 ± 0.0478 kcal/mol

NC(=O)c1ccc(N)cc1 [4-aminobenzamide]
vapor or sublimation pressure ([1]; 389.14 K, Crystal): 0.000125 ± 2e-05 kPa and 0.000124 ± 2e-05 kPa
vapor or sublimation pressure ([1]; 391.15 K, Crystal): 0.000154 ± 2.1e-05 kPa and 0.000156 ± 2.1e-05 kPa and 0.000152 ± 2.1e-05 kPa
vapor or sublimation pressure ([1]; 393.14 K, Crystal): 0.000185 ± 2.1e-05 kPa and 0.000182 ± 2.1e-05 kPa and 0.000187 ± 2.1e-05 kPa
vapor or sublimation pressure ([1]; 395.15 K, Crystal): 0.000228 ± 2.2e-05 kPa and 0.000226 ± 2.2e-05 kPa
vapor or sublimation pressure ([1]; 397.15 K, Crystal): 0.000271 ± 2.2e-05 kPa and 0.000279 ± 2.2e-05 kPa
vapor or sublimation pressure ([1]; 399.14 K, Crystal): 0.00033 ± 2.3e-05 kPa and 0.000332 ± 2.3e-05 kPa and 0.000335 ± 2.3e-05 kPa
vapor or sublimation pressure ([1]; 401.16 K, Crystal): 0.000407 ± 2.5e-05 kPa and 0.000411 ± 2.5e-05 kPa
vapor or sublimation pressure ([1]; 403.15 K, Crystal): 0.000497 ± 2.7e-05 kPa and 0.000495 ± 2.7e-05 kPa and 0.000498 ± 2.7e-05 kPa
vapor or sublimation pressure ([1]; 405.14 K, Crystal): 0.000597 ± 2.9e-05 kPa and 0.000591 ± 2.9e-05 kPa and 0.000602 ± 2.9e-05 kPa
vapor or sublimation pressure ([1]; 407.19 K, Crystal): 0.000728 ± 3.3e-05 kPa and 0.000721 ± 3.2e-05 kPa
vapor or sublimation pressure ([1]; 409.2 K, Crystal): 0.000873 ± 3.7e-05 kPa and 0.000868 ± 3.7e-05 kPa and 0.000883 ± 3.7e-05 kPa
vapor or sublimation pressure ([1]; 411.15 K, Crystal): 0.001054 ± 8.3e-05 kPa and 0.001042 ± 8.1e-05 kPa and 0.001008 ± 7.8e-05 kPa
Triple point temperature ([1]; Crystal): 457.6 ± 0.4 K
Molar enthalpy of transition or fusion ([2]; Crystal): 7.17 ± 0.167 kcal/mol

NC(=O)c1ccccc1N [anthranilamide]
vapor or sublimation pressure ([1]; 335.11 K, Crystal): 9.5e-05 ± 2e-05 kPa and 9.6e-05 ± 2e-05 kPa
vapor or sublimation pressure ([1]; 337.17 K, Crystal): 0.000121 ± 2e-05 kPa and 0.00012 ± 2e-05 kPa
vapor or sublimation pressure ([1]; 339.17 K, Crystal): 0.00015 ± 2.1e-05 kPa and 0.000149 ± 2.1e-05 kPa and 0.000152 ± 2.1e-05 kPa
vapor or sublimation pressure ([1]; 341.1 K, Crystal): 0.00019 ± 2.1e-05 kPa and 0.000188 ± 2.1e-05 kPa and 0.000187 ± 2.1e-05 kPa
vapor or sublimation pressure ([1]; 343.16 K, Crystal): 0.000237 ± 2.2e-05 kPa and 0.000232 ± 2.2e-05 kPa and 0.000236 ± 2.2e-05 kPa
vapor or sublimation pressure ([1]; 345.16 K, Crystal): 0.00029 ± 2.2e-05 kPa and 0.000285 ± 2.2e-05 kPa and 0.000298 ± 2.3e-05 kPa
vapor or sublimation pressure ([1]; 347.11 K, Crystal): 0.000359 ± 2.4e-05 kPa and 0.000357 ± 2.4e-05 kPa
vapor or sublimation pressure ([1]; 349.16 K, Crystal): 0.000445 ± 2.5e-05 kPa and 0.000435 ± 2.5e-05 kPa and 0.000441 ± 2.5e-05 kPa
vapor or sublimation pressure ([1]; 351.17 K, Crystal): 0.000539 ± 2.8e-05 kPa and 0.00053 ± 2.7e-05 kPa and 0.000545 ± 2.8e-05 kPa
vapor or sublimation pressure ([1]; 353.12 K, Crystal): 0.000667 ± 3.1e-05 kPa and 0.000663 ± 3.1e-05 kPa
vapor or sublimation pressure ([1]; 355.16 K, Crystal): 0.00082 ± 3.5e-05 kPa and 0.000826 ± 3.5e-05 kPa and 0.000806 ± 3.5e-05 kPa
vapor or sublimation pressure ([1]; 357.16 K, Crystal): 0.000993 ± 4e-05 kPa and 0.000994 ± 4e-05 kPa
Triple point temperature ([1]; Crystal): 384.4 ± 0.4 K
Molar enthalpy of transition or fusion ([2]; Crystal): 5 ± 0.12 kcal/mol
